Assay results published in PMC13192270, “RhlR quorum-sensing receptor ligand sensitivity regulates the differential expression of phenazine genes in Pseudomonas aeruginosa” (Journal of Bacteriology, 2026).

Tested on: ΔrhlI strain expressing WT RhlR
Assay: RNA-seq gene expression
Format: cell-based, Pseudomonas aeruginosa
Parameters: opmD Expression value / mexI Expression value / mexH Expression value / mexG Expression value / lasB Expression value / rhlA Expression value / rhlB Expression value / rhlR Expression value / lecB Expression value / fhp Expression value / chiC Expression value / hcnA Expression value / mvfR Expression value / katB Expression value / norC Expression value / norB Expression value / katA Expression value: unit not given here
Details: 2 µM C4HSL
Procedure: To determine the effects of hypo- and hypersensitivity to C4HSL on RhlR-dependent transcription activation in P. aeruginosa, we performed RNA-seq on ΔrhlI strains expressing WT RhlR, RhlR T58L, and RhlR A44M in the presence of 2 µM C4HSL. We chose this approach to better control the levels of C4HSL across samples. All gene expression analyses were done relative to a ΔrhlI strain without exogenous supplementation of AHL. Thus, we examined the total increase in C4HSL-dependent gene regulation. We observed increased rhlA RNA levels in strains expressing WT RhlR and the RhlR T58L variant compared to ΔrhlI without C4HSL or a strain expressing the RhlR A44M variant (Table 2; Table S1). […] To corroborate our RNA-seq data, we built an rhlA promoter fusion to mScarlet and assayed reporter levels in the same genetic backgrounds as our transcriptomic experiment (Fig. S7D). Strains expressing hypersensitive RhlR variants produced similar levels of fluorescent signal relative to the WT strain, while a strain expressing a hyposensitive RhlR variant had diminished levels of fluorescent reporter (Fig. S7D).
A total of […] of overnight cultures was back diluted 1:100 in 20 mL of fresh LB media and incubated for 5 h at 37°C with shaking. Cells were harvested by centrifugation, and pellets were frozen until RNA extraction. RNA was extracted using the Invitrogen PureLink RNA Mini Kit. Pellets were resuspended in 100 µL lysozyme solution containing 10 mM Tris-HCl pH 8.0, 0.1 mM EDTA, and 1 mg/mL lysozyme. Five microliters of 1% SDS was added, and the solution was mixed with a vortex and incubated at room temperature for 5 min. A total of 350 µL lysis buffer (Invitrogen) was added with 10 µL 2-mercaptoethanol for each 1 mL of lysis buffer and vortexed. Cells were lysed by bead beating (BioSpec 0.1 MM Zirconia/Silica Beads) for two rounds of 50 s. Lysed cells were transferred to fresh microcentrifuge tubes with 250 µL of 100% ethanol and mixed with a vortex. Samples were spun in spin cartridges (Invitrogen) at 12,000 × g for 15 s at room temperature, and the flow-through was discarded. A total of 700 µL Wash Buffer I (Invitrogen) was added and spun at 12,000 × g for 15 s at room temperature, and the flow-through was discarded. A total of 500 µL Wash Buffer II (Invitrogen) with ethanol was added and centrifuged for 12,000 × g for 15 s at room temperature; the flow-through was discarded, and RNA samples were washed again. Cells were spun at 12,000 × g for 1 min at room temperature to dry the membrane with the bound RNA. A total of 50 µL RNAse-free water was added to the center of the spin cartridge, incubated at room temperature for 1 min, and centrifuged for 2 min at ≥12,000 × g at room temperature. Extracted RNA was then frozen at −80°C until further use.
Bulk RNA was sent to SeqCenter (Pittsburgh, PA) where it was processed for paired-end Illumina sequencing via rRNA depletion using Ribo-Zero Plus (Illumina). Fastq files generated by SeqCenter were processed using Rockhopper with default settings ([61][–][63]). Briefly, fastq files were aligned to the genome of Pseudomonas aeruginosa UCBPP-PA14. The reads were subsequently normalized using upper-quartile normalization, and transcript abundance was determined by reads per kilobase per million mapped reads. Differential gene expression analysis was conducted using a negative binomial distribution model, outputting a P-value for each transcript. The P-values were then corrected for false discovery using the Benjamini-Hochberg procedure, resulting in the q-values reported here (Table S2). SignalMap v2.0 (NimbleGen Systems) was used to visualize read counts for phzABCDEFG1/2, phzH, phzM, and phzS (Fig. 5). Aligned sequences generated in Rockhopper were converted to GFF files, and genes of interest were isolated into unique GFF files ([37]).

CCCC(=O)N[C@H]1CCOC1=O [C4HSL, N-butyryl-L-homoserine lactone]
chiC Expression value: 3,525,171.5 | fhp Expression value: 641,438 | hcnA Expression value: 44,841 | katA Expression value: 14,093,439.5 | katB Expression value: 3,028,118.5 | lasB Expression value: 19,914,902.5 | lecB Expression value: 366,190 | mexG Expression value: 516,840.5 | mexH Expression value: 903,148 | mexI Expression value: 920,093.5 | mvfR Expression value: 301,183 | norB Expression value: 6,989,112.5 | norC Expression value: 3,120,586.5 | opmD Expression value: 631,843.5 | phnA Expression value: 1,160,599.5 | phnB Expression value: 350,722 | phzA1 Expression value: 15,501 | phzA2 Expression value: 238,645 | phzB1 Expression value: 218,602.5 | phzB2 Expression value: 4,517,504 | phzC1 Expression value: 655,136.5 | phzC2 Expression value: 4,730,067 | phzD1 Expression value: 2,329,509 | phzD2 Expression value: 2,063,245.5 | phzE1 Expression value: 4,232,986.5 | phzE2 Expression value: 3,213,651.5 | phzF1 Expression value: 1,981,300.5 | phzF2 Expression value: 1,982,482 | phzG1 Expression value: 560,110.5 | phzG2 Expression value: 2,035,315 | phzM Expression value: 184,602 | phzS Expression value: 726,300.5 | pqsA Expression value: 1,089,687.5 | pqsB Expression value: 2,286,881.5 | pqsC Expression value: 2,211,818.5 | pqsD Expression value: 2,409,895 | pqsE Expression value: 1,210,331 | rhlA Expression value: 1,118,561.5 | rhlB Expression value: 1,056,112.5 | rhlR Expression value: 1,082,023 | chiC Log2fold change (vs ΔrhlI without AHL): 4.67 | fhp Log2fold change (vs ΔrhlI without AHL): 6.375 | hcnA Log2fold change (vs ΔrhlI without AHL): 0.4821 | katA Log2fold change (vs ΔrhlI without AHL): 2.183 | katB Log2fold change (vs ΔrhlI without AHL): 7.942 | lasB Log2fold change (vs ΔrhlI without AHL): 2.638 | lecB Log2fold change (vs ΔrhlI without AHL): 0.03694 | mexG Log2fold change (vs ΔrhlI without AHL): 6.993 | mexH Log2fold change (vs ΔrhlI without AHL): 6.553 | mexI Log2fold change (vs ΔrhlI without AHL): 5.716 | mvfR Log2fold change (vs ΔrhlI without AHL): 0.3556 | norB Log2fold change (vs ΔrhlI without AHL): 7.423 | norC Log2fold change (vs ΔrhlI without AHL): 7.283 | opmD Log2fold change (vs ΔrhlI without AHL): 6.473 | phnA Log2fold change (vs ΔrhlI without AHL): −0.9963 | phnB Log2fold change (vs ΔrhlI without AHL): −0.7095 | phzA1 Log2fold change (vs ΔrhlI without AHL): −0.9521 | phzA2 Log2fold change (vs ΔrhlI without AHL): 4.504 | phzB1 Log2fold change (vs ΔrhlI without AHL): −0.627 | phzB2 Log2fold change (vs ΔrhlI without AHL): 4.419 | phzC1 Log2fold change (vs ΔrhlI without AHL): 1.576 | phzC2 Log2fold change (vs ΔrhlI without AHL): 4.692 | phzD1 Log2fold change (vs ΔrhlI without AHL): 3.417 | phzD2 Log2fold change (vs ΔrhlI without AHL): 3.452 | phzE1 Log2fold change (vs ΔrhlI without AHL): 3.384 | phzE2 Log2fold change (vs ΔrhlI without AHL): 3.413 | phzF1 Log2fold change (vs ΔrhlI without AHL): 3.113 | phzF2 Log2fold change (vs ΔrhlI without AHL): 3.107 | phzG1 Log2fold change (vs ΔrhlI without AHL): 1.459 | phzG2 Log2fold change (vs ΔrhlI without AHL): 4.193 | phzM Log2fold change (vs ΔrhlI without AHL): −0.9094 | phzS Log2fold change (vs ΔrhlI without AHL): −0.04329 | pqsA Log2fold change (vs ΔrhlI without AHL): −1.279 | pqsB Log2fold change (vs ΔrhlI without AHL): −0.7204 | pqsC Log2fold change (vs ΔrhlI without AHL): −0.7931 | pqsD Log2fold change (vs ΔrhlI without AHL): −0.874 | pqsE Log2fold change (vs ΔrhlI without AHL): −1.056 | rhlA Log2fold change (vs ΔrhlI without AHL): 2.147 | rhlB Log2fold change (vs ΔrhlI without AHL): 2.998 | rhlR Log2fold change (vs ΔrhlI without AHL): 0.762
